# Test results as given in BindingDB's records for doi:10.3109/14756366.2012.681651 (East China University of Science and Technology, 2013).
# Molecular target: Ribosomal protein S6 kinase alpha-3 (Homo sapiens, UniProt P51812)
# Test: RSK2 Inhibition Assay
# Settings: pH 7.4; 25 °C
# Experimental: The inhibition assays against RSK2 in vitro were determined by ADP Quest® (DiscoveRx) in 96-well flat-bottom plates according to the manufacturer's instructions [Lu et al., J. Med. Chem., 54:3564-3574]. The kinase (20 ng millipore) in 40 μL assay buffer (15 mM HEPES, pH 7.4, 20 mM NaCl, 1 mM EGTA, 0.02% Tween 20, 10 mM MgCl2, and 0.1 mg/mL BGG) containing 25 μM S6 peptide (AKRRRLSSLRA, Anaspec) was incubated for 20 min at room temperature with indicated concentrations of the compounds to be tested. Reactions were initiated by adding 10 μL of ATP to a final ATP concentration of 10 μM and terminated after 60 min at room temperature by adding 20 μL ADP Reagent A and 40 μL ADP Reagent B. Ro31-8220 was used as a positive control. Compounds dilutions were prepared from stock in DMSO and diluted with assay buffer for inhibition assay. The fluorescence signal detecting the amount of ADP produced as a result of enzyme activity was recorded on the Synergy™ 2 Multi-Mode Microplate Reader (BioTek) at an excitation wavelength of 530 nm and an emission wavelength of 590 nm at 30 min after the addition of the ADP Reagent B.
# Sequence of Ribosomal protein S6 kinase alpha-3 (P51812 whole entry): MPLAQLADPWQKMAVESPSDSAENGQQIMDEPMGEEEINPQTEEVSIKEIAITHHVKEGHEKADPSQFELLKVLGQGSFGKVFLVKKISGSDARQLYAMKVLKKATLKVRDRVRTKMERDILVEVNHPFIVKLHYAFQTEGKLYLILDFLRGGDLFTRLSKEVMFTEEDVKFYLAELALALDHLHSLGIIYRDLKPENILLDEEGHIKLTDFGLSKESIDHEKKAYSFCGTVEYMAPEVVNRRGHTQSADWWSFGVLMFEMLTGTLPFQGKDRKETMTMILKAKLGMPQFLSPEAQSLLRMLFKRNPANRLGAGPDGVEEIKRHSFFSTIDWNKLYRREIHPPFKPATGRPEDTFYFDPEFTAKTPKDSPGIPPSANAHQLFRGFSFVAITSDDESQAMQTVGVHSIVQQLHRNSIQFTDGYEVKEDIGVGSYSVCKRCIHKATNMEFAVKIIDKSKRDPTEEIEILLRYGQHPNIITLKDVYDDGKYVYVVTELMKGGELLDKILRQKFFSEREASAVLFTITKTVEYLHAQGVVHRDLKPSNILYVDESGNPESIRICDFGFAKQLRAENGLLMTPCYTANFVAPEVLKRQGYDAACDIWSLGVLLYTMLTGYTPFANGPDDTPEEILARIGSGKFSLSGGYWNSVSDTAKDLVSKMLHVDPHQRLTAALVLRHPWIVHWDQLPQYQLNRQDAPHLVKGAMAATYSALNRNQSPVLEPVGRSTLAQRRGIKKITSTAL
row,SMILES,IC50 [µM]
1,"O=C1NC(=S)NC(=O)C1=NNc1ccc(O)cc1 [5-(2-(4-Hydroxyphenyl)hydrazono)-dihydro-2-thioxopyrimidine-4,6(1H,5H)-dione (14)]",2.19
2,"O=C1NC(=S)NC(=O)C1=NNc1ccc(N2CCOCC2)cc1 [5-(2-(4-Morpholinophenyl)hydrazono-dihydro-2-thioxopyrimidine-4,6(1H,5H)-dione (15)]",9.23
3,"O=C1NC(=O)C(=NNc2ccc(N3CCOCC3)cc2)C(=O)N1 [5-(2-(4-Morpholinophenyl)hydrazono)pyrimidine-2,4,6(1H,3H,5H)-trione (13)]",5.11
4,"O=C1NC(=O)C(=NNc2ccc(O)cc2)C(=O)N1 [5-(2-(4-Hydroxyphenyl)hydrazono)pyrimidine-2,4,6(1H,3H,5H)-trione (9)]",1.95
